From PubChem BioAssay AID1963977 (Molecular Pharmacology Branch, DTP, NCI, 2024)
Values joined by “and” are separate entries in the source; they are usually repeats but may differ in a detail not shown here. Equal entries are not always repeated.

System: 624824-186-R-J3-PDC multicell spheroids, viability
Assay: Anticancer human tumor 624824-186-R-J3-PDC patient-derived colon adenocarcinoma cell line growth inhibition [PI3K]
Conditions: for viability, T/C: stronger effect = lower value
Description: Combinatorial screen of targeted agents with the PI3K inhibitors inavolisib, alpelisib, duvelisib, and copanlisib in multi-cell type tumor spheroids
A high-throughput screen of multi-cell type tumor spheroids was designed to identify active combinations of targeted small molecules and PI3K pathway inhibitors. Complex spheroids include a stromal component modeled by human endothelial cells (HUVEC) and fibroblasts modeled by human mesenchymal stem cells (MSCs). The concentration ranges selected for each drug and investigational agent were based upon clinically achievable concentrations if the clinical Cmax of the agent was known.
Compounds. The drugs and investigational agents: inavolisib (NSC800729), alpelisib (NSC765974), duvelisib (NSC772469), copanlisib (NSC816437), ipatasertib (NSC767898), afuresertib (NSC778305), talazoparib (NSC767125), sapanisertib (NSC764658), selumetinib (NSC741078), tovorafenib (DAY101, NSC766906), vemurafenib (NSC761431), ravoxertinib (NSC781343), sotorasib (NSC818433), MRTX1133 (NSC 836407), abemaciclib (NSC 768073), palbociclib (NSC758247), venetoclax (NSC 766270), SY5609 (NSC837396), enzalutamide (NSC755605), and darolutamide (NSC825331), were obtained from the National Cancer Institute (NCI) Developmental Therapeutics Program Chemical Repository. The FDA-approved anticancer drug set is available from the NCI Developmental Therapeutics Program. […] The stock solutions were prepared in dimethyl sulfoxide (DMSO, Sigma-Aldrich, St. Louis, MO, cat. D2650) at 800-fold the tested concentration and stored at -70 degrees C prior to their use. All drugs and investigational agents were tested over a range starting from a high concentration at or near the clinical Cmax and decreasing in half-log increments. If the clinical Cmax for an agent had not been determined, the highest concentration tested was 10 microM.
Cell Culture. All cells were maintained in an incubator at 37 degrees C and 5% CO2 with 95% humidity. The PDC lines were cultured according to standard operating procedures established by the NCI PDMR (https://pdmr.cancer.gov/sops/default.htm). All PDCs were thawed and cultured in Matrigel-coated flasks prepared with a working solution of 1X Ham's F-12 nutrient mix, without supplementation (Invitrogen, Waltham, MA, cat. 11765054), 100 U/mL penicillin-streptomycin (Invitrogen, cat. 15140122), and 2.5% Matrigel (Corning Inc., Corning, NY, cat. 354248) for the first three passages. The 354836-022-R-J1-PDC, 475296-252-R-J1-PDC, and 997726-040-R-J2-PDC lines were cultured in 6A media, which includes advanced DMEM/F-12 (Thermo Fisher Scientific, cat. 12634028), 10 mM HEPES (Thermo Fisher Scientific, cat. 15630080), 1X GlutaMAX supplement (Thermo Fisher Scientific, cat. 35050061), 0.1 mg/mL primocin (InvivoGen, San Diego, CA, cat. ant-pm-2), 10% defined fetal bovine serum, heat inactivated (HyClone Laboratories Inc., Logan, UT, cat. SH30070.03HI), 50% L-WRN conditioned media (ATCC, cat. CRL-3276), 1.25 mM N-Acetyl-L-cysteine (Sigma-Aldrich, cat. A9165), 10 mM nicotinamide (Sigma-Aldrich, cat. N0636), 1X B-27 supplement (Thermo Fisher Scientific, cat. 17504044), 1X N-2 supplement (Thermo Fisher Scientific, cat. 17502048), and 10 microM Y-27632 dihydrochloride (Tocris Bioscience, Bristol, United Kingdom, cat. 1254). The 624824-186-R-J2-PDC line was cultured in 6C/Colon 1B media, which includes all 6A media components plus 50 ng/mL human EGF recombinant protein (Thermo Fisher Scientific, cat. PHG0311). […]

[1] = compound alone, run of 04/24/2023
[2] = compound alone, run of 04/25/2023
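Also: spheroids exposed to agents for seven days before luminescence read.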
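For viability, T/C in this document: luminescent signal used as a stand-in for spheroid viability; percent viability relative to DMSO vehicle control wells taken as 100%.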

SMILES	viability, T/C (compound 0.000316 µM)	viability, T/C (compound 0.001 µM)	viability, T/C (compound 0.00316 µM)	viability, T/C (compound 0.01 µM)	viability, T/C (compound 0.0316 µM)	viability, T/C (compound 0.1 µM)	IC50 (curve of compound)	viability, T/C (compound 0.316 µM)	viability, T/C (compound 1 µM)	viability, T/C (compound 3.16 µM)	viability, T/C (compound 10 µM)	IC50 [1] [µM]	IC50 [2]	viability, T/C (compound 0.00949 µM)	viability, T/C (compound 0.03 µM)	viability, T/C (compound 0.0949 µM)	viability, T/C (compound 0.3 µM)	viability, T/C (compound 0.949 µM)	viability, T/C (compound 3 µM)
CC(=O)c1c(C)c2cnc(Nc3ccc(N4CCNCC4)cn3)nc2n(C2CCCC2)c1=O	101% [middle of 4 runs]	103% [middle of 4 runs]	104% [middle of 4 runs]	98.7% [middle of 4 runs]	108% [middle of 4 runs]	105% [middle of 4 runs]	> 0.1 µM	–	–	–	–	–	–	–	–	–	–	–	–
CC(C)NCC(C(=O)N1CCN(c2ncnc3c2C(C)CC3O)CC1)c1ccc(Cl)cc1 (stereo not given)	–	–	–	–	101% [middle of 4 runs]	101% [middle of 4 runs]	> 10 µM and 6.5 µM	102% (2×) and 100% and 105%	82% [middle of 4 runs]	67.8% [middle of 4 runs]	57.8% [middle of 4 runs]	–	–	–	–	–	–	–	–
CC(C)n1nc(-c2ccc3oc(N)nc3c2)c2c(N)ncnc21	103% [middle of 4 runs]	104% and 97.2% and 101% (2×)	106% [middle of 4 runs]	108% [middle of 4 runs]	99.4% [middle of 4 runs]	64.2% [middle of 4 runs]	> 0.1 µM	–	–	–	–	–	–	–	–	–	–	–	–
CC(Nc1ccc2c(c1)OCCn1cc(N3C(=O)OCC3C(F)F)nc1-2)C(N)=O (stereo not given)	–	–	101% [middle of 7 runs]	103% [middle of 7 runs]	108% [middle of 7 runs]	109% [middle of 7 runs]	–	100% [middle of 7 runs]	88.5% [middle of 7 runs]	–	–	> 1	–	–	–	–	–	–	–
CC(Nc1ncnc2nc[nH]c12)c1cc2cccc(Cl)c2c(=O)n1-c1ccccc1 (stereo not given)	–	–	–	–	103% [middle of 8 runs]	–	–	106% [middle of 8 runs]	108% [middle of 8 runs]	106% [middle of 8 runs]	94.7% [middle of 8 runs]	–	> 10 µM	–	–	–	–	–	–
CCN1CCN(Cc2ccc(Nc3ncc(F)c(-c4cc(F)c5nc(C)n(C(C)C)c5c4)n3)nc2)CC1	–	–	108% (2×) and 105% and 107%	106% [middle of 4 runs]	112% (2×) and 105% and 115%	107% [middle of 4 runs]	> 1 µM	104% [middle of 4 runs]	104% [middle of 4 runs]	–	–	–	–	–	–	–	–	–	–
COc1c(OCCCN2CCOCC2)ccc2c3n(c(=NC(=O)c4cnc(N)nc4)nc12)CCN3	–	–	102% [middle of 8 runs]	104% [middle of 8 runs]	102% [middle of 8 runs]	85.9% [middle of 8 runs]	–	54.4% [middle of 8 runs]	31.7% [middle of 8 runs]	–	–	–	380 nM [middle of 8 runs]	–	–	–	–	–	–
C[C@@H](NC(=O)c1ncnc(N)c1Cl)c1ncc(C(=O)Nc2cc(C(F)(F)F)c(Cl)cn2)s1	–	–	–	–	103% and 100% and 120%	96.1% and 93.2% (2×)	> 10 µM	99.7% and 104% and 102%	99.9% and 97.9% and 107%	94.9% and 98.1% and 99.8%	89.5% and 97.3% and 104%	–	–	–	–	–	–	–	–
Cc1nc(NC(=O)N2CCCC2C(N)=O)sc1-c1ccnc(C(C)(C)C(F)(F)F)c1 (stereo not given)	–	–	–	–	102% [middle of 8 runs]	108% [middle of 8 runs]	–	109% [middle of 8 runs]	107% [middle of 8 runs]	94% [middle of 8 runs]	72.8% [middle of 8 runs]	> 10	–	–	–	–	–	–	–
Cn1cnc2c(F)c(Nc3ccc(Br)cc3Cl)c(C(=O)NOCCO)cc21	–	–	–	–	–	–	2.05 µM and 1.78 µM and 2.37 µM	–	–	–	–	–	–	97.1% and 99.4% and 96.4%	87.8% and 93.3% and 90.5%	89.1% and 88.9% and 83.9%	88.5% and 82.7% and 75.8%	67.2% and 63.3% and 74.6%	41.4% and 38.2% and 43.1%
Cn1ncnc1[C@H]1c2n[nH]c(=O)c3cc(F)cc(c23)N[C@@H]1c1ccc(F)cc1	110% [middle of 4 runs]	100% [middle of 4 runs]	–	99.7% [middle of 4 runs]	103% (2×) and 93.2% and 95.4%	98.4% [middle of 4 runs]	> 0.1 µM	–	–	–	–	–	–	–	–	–	–	–	–
